Measured values taken from paper PMC8809408 (Frontiers in Pharmacology, 2022).
Entries after “also recorded” stand apart in the source; their conditions may differ. Like-named read-outs stand apart in the source and are kept apart here.

Columns and labels:
[1] = test system: HEK293T-ACE2-TMPRSS2 cells
in vitro = conditions: human
COVID-19 [2] = conditions: follow up randomized controlled trial ref Reis et al., 2021; cited from earlier work
Sigma-1 receptor (S1R) = conditions: cited from earlier work
COVID-19 [3] = conditions: COVID-19 patients, treatment for 20 days ref Hoertel, et al., 2021b; cited from earlier work
SARS-CoV-2 (B.1) = type: cell-based
S2R = conditions: ref Robson et al., 2012; cited from earlier work
TMPRSS2 [4] = type: cell-based, human
ACE2 [5] = type: cell-based, human
[6] = samples collected from pilot fatalities ref Johnson et al., 2007; cited from earlier work
[7] = test system: SARS-CoV-2 B.1.617.2 (delta); type: cell-based
[8] = test system: SARS-CoV-2 B.1.1.7 (alpha); type: cell-based
ACE2 [9] = type: cell-based, human; remark: listed apart in the source
[10] = test system: SARS-CoV-2 B.1.351 (beta); type: cell-based
TMPRSS2 [11] = type: cell-based, human; remark: listed apart in the source
Zaire Ebola virus (EBOV) = conditions: cited from earlier work
[12] = ref Narita et al., 1996, Sukhatme et al., 2021

Structure (SMILES): COCCCC/C(=N\OCCN)c1ccc(C(F)(F)F)cc1 [Fluvoxamine]
- cell viability (ATP level) in non-infected and infected cells [1]: Reduction
- CC50 (in vitro): 75.3 µM
- hospitalization risk due to COVID-19 (COVID-19 [2]): helps with the reduction of hospitalization risk
- binding to S1R (Sigma-1 receptor (S1R); [12]): bind to S1R

Structure (SMILES): CN(C)CCC[C@@]1(c2ccc(F)cc2)OCc2cc(C#N)ccc21 [escitalopram]
- risk of intubation or death by COVID-19 (COVID-19 [3]): reduce the risk of intubation or death

Structure (SMILES): CN(C)CCCC1(c2ccc(F)cc2)OCc2cc(C#N)ccc21 (stereo not shown) [Citalopram]
- cell viability (ATP level) in non-infected and infected cells [1]: Reduction
- CC50 (in vitro): 274 µM
- viability of infected Calu-1 cells (ATP level) (Calu-1 cells): decreased the cell viability
- genome copies of SARS-CoV-2 (qRT-PCR) (SARS-CoV-2 (B.1)): clearly reduced
- infectious virus particles (TCID50 assay) (SARS-CoV-2 (B.1)): clearly reduced
- binding to S1R (Sigma-1 receptor (S1R); [12]): bind to S1R

Structure (SMILES): CN(C)CCCN1c2ccccc2CCc2ccccc21 [Imipramine]
- cell viability (ATP level) [1]: reduced ATP levels
- cell viability (ATP level) in non-infected and infected cells [1]: Reduction
- CC50 (in vitro): 68.6 µM
- viability of infected Calu-1 cells (ATP level) (Calu-1 cells): All compounds, except for imipramine, decreased the cell viability
- genome copies of SARS-CoV-2 (qRT-PCR) (SARS-CoV-2 (B.1)): reducing the genome copies
- infectious virus particles (TCID50 assay) (SARS-CoV-2 (B.1)): failed to effect the TCID50
- binding to S1R (Sigma-1 receptor (S1R); [12]): bind to S1R

Structure (SMILES): CCOc1ccccc1OC(c1ccccc1)C1CNCCO1 (stereo not shown) [Reboxetine]
- genome copies of SARS-CoV-2 (qRT-PCR) (SARS-CoV-2 (B.1)): clearly reduced
- infectious virus particles (TCID50 assay) (SARS-CoV-2 (B.1)): clearly reduced

Structure (SMILES): CNC1(c2ccccc2Cl)CCCCC1=O (stereo not shown) [Ketamine]
- binding to S2R (S2R): can bind to both S1R and S2R
- binding to S1R (Sigma-1 receptor (S1R); ref Robson et al., 2012): can bind to both S1R and S2R

Structure (SMILES): CNCCC(Oc1ccc(C(F)(F)F)cc1)c1ccccc1 (stereo not shown) [Fluoxetine]
- TMPRSS2 protein level (TMPRSS2 [4]): significantly increased; also recorded: Despite not being statistically significant, fluoxetine also increased TMPRSS2
- ACE2 mRNA level (ACE2 [5]): remained unaltered
- cell viability (ATP level) in non-infected and infected cells [1]: Reduction
- mean concentration of fluoxetine in lungs [6]: 19.6 µg/g
- risk of intubation or death by COVID-19 (COVID-19 [3]): reduce the risk of intubation or death
- CC50 (in vitro): 41.5 µM
- viability of infected Calu-1 cells (ATP level) (Calu-1 cells): decreased the cell viability
- Calu-1 viability (ATP levels) (Calu-1 cells; human): slightly reduced the Calu-1 viability
- TCID50 (infectious virus) [7]: reduced
- genome copy number (qRT-PCR) [7]: reduced
- TCID50 (infectious virus) [8]: reduced
- genome copy number (qRT-PCR) [8]: reduced
- genome copies of SARS-CoV-2 (qRT-PCR) (SARS-CoV-2 (B.1)): clearly reduced
- infectious virus particles (TCID50 assay) (SARS-CoV-2 (B.1)): clearly reduced
- binding to S1R (Sigma-1 receptor (S1R); [12]): bind to S1R
- ACE2 protein level (ACE2 [9]): does not exert any effect on the ACE2 expression
- TCID50 (infectious virus) [10]: reduced
- genome copy number (qRT-PCR) [10]: reduced
- TMPRSS2 mRNA level (TMPRSS2 [11]): increased

Structure (SMILES): COc1ccc(C(CN(C)C)C2(O)CCCCC2)cc1 (stereo not shown) [Venlafaxine]
- CC50 [1]: No fitting
- cell viability (ATP level) [1]: all the compounds, except (E) venlafaxine and (F) reboxetine reduced ATP levels
- risk of intubation or death by COVID-19 (COVID-19 [3]): reduce the risk of intubation or death
- viability of infected Calu-1 cells (ATP level) (Calu-1 cells): decreased the cell viability
- genome copies of SARS-CoV-2 (qRT-PCR) (SARS-CoV-2 (B.1)): ineffective
- infectious virus particles (TCID50 assay) (SARS-CoV-2 (B.1)): ineffective
- affinity to S1R (Sigma-1 receptor (S1R); ref Ishima et al., 2014): very weak affinity

Structure (SMILES): Fc1ccc([C@@H]2CCNC[C@H]2COc2ccc3c(c2)OCO3)cc1 [Paroxetine]
- cell viability (ATP level) in non-infected and infected cells [1]: Reduction
- CC50 (in vitro): 22.1 µM
- Zaire Ebola virus (EBOV) entry to target cells (Zaire Ebola virus (EBOV)): reduce the Zaire Ebola virus (EBOV) entry
- binding to S1R (Sigma-1 receptor (S1R); [12]): bind to S1R

Structure (SMILES): O=c1[nH]c2ccccc2n1C1CCN(CCCC(c2ccc(F)cc2)c2ccc(F)cc2)CC1 [Pimozide]
- cell viability (ATP level) in non-infected and infected cells [1]: Reduction
- CC50 (in vitro): 15 µM

Structure (SMILES): CN(C)CCCN1c2ccccc2Sc2ccc(Cl)cc21 [Chlorpromazine]
- ACE2 mRNA level (ACE2 [5]): induced a reduction of this target
- cell viability (ATP level) in non-infected and infected cells [1]: Reduction
- CC50 (in vitro): 15.9 µM
- viability of infected Calu-1 cells (ATP level) (Calu-1 cells): slight but significant reduction in the viability
- amount of infectious virus (TCID50 assay) (SARS-CoV-2 (B.1)): failed to observe diminished amount of infectious virus
- total amount of virus / genome copy number (qRT-PCR) (SARS-CoV-2 (B.1)): able to reduce the total amount of virus
- TMPRSS2 mRNA level (TMPRSS2 [11]): remained ineffective

Structure (SMILES): OCCN1CCN(CCC=C2c3ccccc3Sc3ccc(C(F)(F)F)cc32)CC1 [Flupenthixol]
- cell viability (ATP level) in non-infected and infected cells [1]: Reduction
- CC50 (in vitro): 19.4 µM

Structure (SMILES): CN[C@H]1CC[C@@H](c2ccc(Cl)c(Cl)c2)c2ccccc21 [sertraline]
- Zaire Ebola virus (EBOV) entry to target cells (Zaire Ebola virus (EBOV)): reduce the Zaire Ebola virus (EBOV) entry
- binding to S1R (Sigma-1 receptor (S1R); [12]): bind to S1R

Structure (SMILES): CNCCCN1c2ccccc2CCc2ccccc21 [Desipramine]
- cell viability (ATP level) in non-infected and infected cells [1]: Reduction
- CC50 (in vitro): 68.9 µM
- binding to S1R (Sigma-1 receptor (S1R); [12]): bind to S1R

Structure (SMILES): CN(C)CCCN1c2ccccc2CCc2ccc(Cl)cc21 [Clomipramine]
- ACE2 mRNA level (ACE2 [5]): induced a reduction of this target
- cell viability (ATP level) in non-infected and infected cells [1]: Reduction
- CC50 (in vitro): 65.7 µM
- Zaire Ebola virus (EBOV) entry to target cells (Zaire Ebola virus (EBOV)): reduce the Zaire Ebola virus (EBOV) entry
- viability of infected Calu-1 cells (ATP level) (Calu-1 cells): decreased the cell viability
- genome copies of SARS-CoV-2 (qRT-PCR) (SARS-CoV-2 (B.1)): clearly reduced
- infectious virus particles (TCID50 assay) (SARS-CoV-2 (B.1)): clearly reduced
- TMPRSS2 mRNA level (TMPRSS2 [11]): remained ineffective
